US20260263406A1, “SYNERGISTIC COMPOSITION FOR MODULATING EXPRESSION OF CD38” (CELAGENEX RESEARCH (INDIA) PVT. LTD., priority 2023, published 2026)

Key:
Type in all cases: in vivo, Sprague-Dawley rats
[1] = test system: CD38; assay: Western blot of CD38 expression in liver tissues of streptozotocin-induced diabetic rats; parameters: % Decrease of CD38 Disease control: concentration or dose not given beside the values; conditions: STZ diabetic rats; for % Decrease of CD38 Disease control: liver tissue, 28 days treatment, versus diabetic control G2
Procedure: (§1) “To evaluate the antidiabetic potential of the present compositions and its mechanistic role in controlling damages of vital tissues in streptozotocin-induced diabetic rats.”
(§2) • Species: Rats • Strain: Sprague-Dawley • Sex: Male • No. of animals: 36 Animals (n=6 per group) • Body weight: 110-130 g Animal House conditions • Lighting: 12/12-hour light-dark cycle • Temperature: 22±3° C. • Relative Humidity: 40 to 60%
(§3) Acclimatization: Animals have been acclimatized to the animal house environment for 2 weeks. The animal experiments were designed and conducted strictly in accordance with the guidelines of AEC. Streptozotocin (STZ) was freshly prepared in 0.1M citrate buffer (pH 4.5). T2D was induced experimentally by single intraperitoneal (i.p.) injection of low dose STZ (40 mg per kg) to the rats, kept fasted overnight. Animals were unfed for 12 h before the estimation of fasting blood glucose. When the fasting plasma glucose level had become above 250 mg dL-1 in 72 h after STZ administration, STZ treated animals were considered as diabetic and all the experimental animals were then kept without any treatment for a period of 2 weeks. The composition treatment was started on 15th day after STZ injection in the respective groups of rats.
(§4) Test sample was dissolved in water containing 0.1% v/v Dimethyl Sulfoxide (DMSO) for animal treatment. Diabetic rats were then treated with intracerebroventricular (i.c.v.) administration of test samples. The animals were divided in six groups each of which contained six rats:
(§5) Daily food and water consumptions were observed and body weights were taken on a weekly basis. After 72 h of STZ administration, blood was drawn from tail vein of rats and fasting blood glucose was measured by glucometer. On the last day of the experiment, all rats were sacrificed by common method of euthanasia. All animals were unfed for 12 h before being killed. Liver, kidneys, pancreas tissues and skeleton muscles were removed surgically and stored at −80° C. in a deep freezer for western blot analysis.
(§6) GLUT4 and CD38 expressions were evaluated by Western blot. For GLUT4 content analysis, membrane samples were prepared from skeletal muscles and for CD38 protein analysis, liver tissues were used. In Western blot analysis, 25 μg of membrane protein per sample was subjected to Sodium Dodecyl Sulfate (SDS) polyacrylamide gel electrophoresis in parallel with molecular weight markers on a 10% resolving gel. The separated proteins were then transferred to a nitrocellulose membrane in a semidry system. β-tubulin was used to ensure equivalent loading of the gel incubating the same membrane with β-tubulin antibody after stripping.
(§7) Western blotting kit was used for immunodetection, using anti-GLUT4 and anti-CD38 antibodies. Detection was done by the enhanced chemiluminescence method and densitometric quantitation was done by scanning of the autoradiographic GLUT4 and CD38 signals with the help of software. Densitometric scanning was indicated the (percentage of band intensity) of GLUT4 bands and CD38 bands of test samples treated diabetic rats and diabetic control rats. Data were expressed as percentage increase or decrease of intensity of band.
(§8) Each value represents mean±SD (n=6). The significance of in vivo data was analyzed by one-way Anova followed by Dunnet test. P<0.05 was considered as significant.

[2] = test system: CD38; assay: as above; conditions: STZ diabetic rats, liver tissue, daily treatment for 28 days from day 15 after STZ, densitometry, n=6; normal control 100, diabetic control 112
[3] = test system: GLUT4; assay: Western blot of GLUT4 expression in skeletal muscles of streptozotocin-induced diabetic rats; conditions: STZ diabetic rats, skeletal muscle membrane, daily treatment for 28 days from day 15 after STZ, i.p. (Table 1), densitometry, n=6; normal control 100, diabetic control 80
[4] = test system: GLUT4; assay: as above; parameters: concentration or dose not given beside the values; conditions: STZ diabetic rats, skeletal muscle, 28 days treatment, versus diabetic control G2
Procedure: as §1, §2, §3, §4, §5, §6, §7, §8

| SMILES | downregulation of CD38 (result in words) ([1]; discussion of the Western blot results) | % Decrease of CD38 Disease control [1] | Band Intensity of CD38 (%) 45 kDa [2] | Band Intensity of GLUT4 (%) 54 kDa [3] | % Increase of Glut4 over Disease control [4] |
| --- | --- | --- | --- | --- | --- |
| CC1=CC(=O)CC(C)(C)[C@@]1(O)/C=C/C(C)=C\C(=O)O [Composition G3, (2Z,4E)-5-[(1S)-1-hydroxy-2,6,6-trimethyl-4-oxocyclohex-2-en-1-yl]-3-methylpenta-2,4-dienoic acid] | not sufficient to give significant results | 15.2% | 95% | 110% | 37.5% |
| CC(CN)C(=O)O (stereo not drawn) [Composition G4, 3-Aminoisobutyric acid] | – | 11.6% | 99% | 104% | 30.0% |
| C[S+]([O-])CCCCN=C=S (stereo not drawn) [Composition G5, 1-isothiocyanato-4-methylsulfinylbutane] | – | 8.9% | 102% | 95% | 18.8% |
| O=C(O)CC(=O)C(=O)O [Composition G6, Oxobutanedioic acid] | – | 9.8% | 101% | 102% | 27.5% |
| C[C@H](O)C(=O)N[C@@H](Cc1ccccc1)C(=O)O [Composition G7, (2S)-2-[[(2S)-2-hydroxypropanoyl]amino]-3-phenylpropanoic acid] | – | 14.3% | 96% | 106% | 32.5% |
| CCCCCCCCCCCCCCC(=O)O [Composition G8, Pentadecanoic acid] | – | 8.0% | 103% | 100% | 25.0% |
| CC(C)CC(N)C(=O)NC(CC(C)C)C(=O)O (stereo not drawn) [Composition G9, Dileucine] | – | 11.6% | 99% | 98% | 22.5% |
| CC1=C(O)C(=O)C=C2C1=CC=C1[C@@]2(C)CC[C@@]2(C)[C@@H]3C[C@](C)(C(=O)O)CC[C@]3(C)CC[C@]12C [Composition G10, (2R,4aS,6aR,6aS,14aS,14bR)-10-hydroxy-2,4a,6a,6a,9,14a-hexamethyl-11-oxo-1,3,4,5,6,13,14,14b-octahydropicene-2-carboxylic acid] | – | 9.8% | 101% | 95% | 18.8% |
